Experimental findings from patent publication US20120323002A1, “IMIDAZOPYRIDAZINE COMPOUNDS” (AJINOMOTO CO., INC., priority 2009, published 2012) are described below.

pIC50: −log10 of the molar value. Where only a bound is given, the exact number is not on record here.

Holding throughout (format): cell-based, mouse (female Balb/c)
Experiment [1] deals with IL-12p70 (IL-12p35/p40 complex). The experiment in a line: Cytokine inhibiting action using mouse peritoneal macrophages: IL-12p70 production (ELISA). Particulars: Peritoneal macrophage, 100 ng/mL mouse interferon-γ + 0.05% (v/v) SAC, incubated overnight, 50% production inhibition concentration. How it is done:
(§1) 1 mL of a 3% (w/v) thioglycolate solution was intraperitoneally administered to a mouse (female Balb/c). 5 or 6 days later, the peritoneal cells of the mouse were collected, and the adherent cells were used for evaluation. 100 ng/mL of mouse interferon-γ, a 0.05% (v/v) suspension of killed Staphylococcus aureus Cowan I strain (SAC) and a compound of the present invention were added thereto and incubated overnight. After the incubation, the survival rate was measured, and each of IL-12p70 (IL-12p35/p40 complex) and TNF-α was quantified by ELISA using the collected culture supernatant to calculate the 50% production inhibition concentration (IC50) (refer to Table 1; meanwhile, the blanks in the table indicate unmeasured).

The test system is the same in experiment [2]. The experiment in a line: Cytokine inhibiting action using mouse whole blood: IL-12p70 production (ELISA). Particulars: mouse whole blood (EDTA), 200 ng/mL mouse interferon-γ + 1.25% (v/v) SAC, incubated overnight; 50% production inhibition concentration. How it is done: The blood (EDTA addition) was collected from a mouse (female Balb/c) and used for evaluation. 200 ng/mL of mouse interferon-γ, a 1.25% (v/v) suspension of killed Staphylococcus aureus Cowan I strain (SAC) and a compound of the present invention were added to a cell culture medium, diluted to become a quantity equal to the blood and incubated overnight.
(In general: ELISA stands for enzyme-linked immunosorbent assay.)

The next experiment deals with TNF-α. The experiment in a line: Cytokine inhibiting action using mouse peritoneal macrophages: TNF-α production (ELISA). Particulars: Peritoneal macrophage, 100 ng/mL mouse interferon-γ + 0.05% (v/v) SAC, incubated overnight, 50% production inhibition concentration. As to the method: as §1

For orientation: pIC50 means the negative decadic logarithm of the IC50, by convention in mol/L. As for `FCc1ccc(/C=N/Nc2cc(N3CCOCC3)c3nc(-c4ccncc4)cn3n2)cc1` [Compound 26, N-(4-fluoromethyl-benzylidene)-N′-(8-morpholin-4-yl-2-pyridin-4-yl-imidazo[1,2-b]pyridazin-6-yl)-hydrazine], the negative logarithm of the IC50 (pIC50) in experiment [1] was 7.34; in experiment [2], 6.57.
Regarding `Cc1cccc(/C=N/Nc2cc(N3CCOCC3)c3nc(-c4cccnc4)cn3n2)c1` [Compound 3, N-(3-methyl-benzylidene)-N′-(8-morpholin-4-yl-2-pyridin-3-yl-imidazo[1,2-b]pyridazin-6-yl)-hydrazine], the pIC50 in experiment [1] was 8.06; in the experiment with TNF-α, below 5.00; in experiment [2], 5.52.
For the molecule `C(=N\Nc1cc(N2CCOCC2)c2nc(-c3ccncc3)cn2n1)/c1coc2ccccc12` [Compound 9, N-benzofuran-3-yl-methylidene-N′-(8-morpholin-4-yl-2-pyridin-4-yl-imidazo[1,2-b]pyridazin-6-v)-hydrazine], the negative-log IC50 (pIC50) is 7.12 in experiment [1] and 6.05 in experiment [2].
In the same order, the values of `C(=N\Nc1cc(N2CCOCC2)c2nc(-c3ccncc3)cn2n1)/c1cc2ccccc2[nH]1` [Compound 21, N-(1H-indol-2-ylmethylene)-N-(8-morpholin-4-yl-2-pyridin-4-yl-imidazo[1,2-b]pyridazin-6-yl)-hydrazine] are 7.80 and 6.47.
In the same order, the values of `Cc1ccccc1/C=N/Nc1cc(N2CCOCC2)c2nc(-c3ccncc3)cn2n1` [Compound 28, N-(2-methyl-benzylidene)-N′-(8-morpholin-4-yl-2-pyridin-4-yl-imidazo[1,2-b]pyridazin-6-yl)-hydrazine] are 7.12 and 6.54.
In the same order, the values of `FC(F)c1cccc(/C=N/Nc2cc(N3CCOCC3)c3nc(-c4ccncc4)cn3n2)c1` [Compound 22, N-(3-difluoromethyl-benzylidene)-N-(8-morpholin-4-yl-2-pyridin-4-yl-imidazo[1,2-b]pyridazin-6-yl)-hydrazine] are 7.40 and 6.96.
Consider `Cc1ccc(-c2cn3nc(N/N=C/c4c[nH]c5ccccc45)cc(N4CCOCC4)c3n2)cn1` [Compound 30, N-(1H-indol-3-yl-methylene)-N′-[2-(6-methyl-pyridin-3-yl)-8-morpholin-4-yl-imidazo[1,2-b]pyridazin-6-yl]-hydrazine], for which the pIC50 in experiment [1] is 8.28; in experiment [2] it was 5.72.
In the same order, the values of `Cc1cccc(/C=N/Nc2cc(N3CCOCC3)c3nc(-c4ccc(-c5ccccn5)s4)cn3n2)c1` [Compound 8, N-(3-methyl-benzylidene)-N′-[8-morpholin-4-yl-2-(5-pyridin-2-yl-thiophen-2-yl)-imidazo[1,2-b]pyridazin-6-yl]-hydrazine] are 7.82 and 5.82.
In the same order, the values of `C(=N\Nc1cc(N2CCOCC2)c2nc(-c3ccncc3)cn2n1)/c1ccc2occc2c1` [Compound 20, N-benzofuran-5-ylmethylene-N′-(8-morpholin-4-yl-2-pyridin-4-yl-imidazo[1,2-b]pyridazin-6-yl)-hydrazine] are 8.03 and 6.82.
In the same order, the values of `CN1CCc2ccc(/C=N/Nc3cc(N4CCOCC4)c4nc(-c5ccncc5)cn4n3)cc21` [Compound 27, N-(N-methylindoline-6-ylmethylene)-N-(8-morpholin-4-yl-2-pyridin-4-yl-imidazo[1,2-b]pyridazin-6-yl)-hydrazine] are 7.36 and 5.92.
As to `C(=N\Nc1cc(N2CCOCC2)c2nc(-c3ccncc3)cn2n1)/c1csc2ccccc12` [Compound 11, N-benzo[b]thiophen-3-yl-methylidene-N′-(8-morpholin-4-yl-2-pyridin-4-yl-imidazo[1,2-b]pyridazin-6-yl)-hydrazine], the pIC50 in experiment [1] was 7.52; in experiment [2] it was 6.00.
In the same order, the values of `Cc1cccc(/C=N/Nc2cc(N3CCOCC3)c3nc(-c4cn[nH]c4)cn3n2)c1` [Compound 29, N-(3-methyl-benzylidene)-N′-{8-morpholin-4-yl-2-(1H-pyrazol-4-yl)-imidazo[1,2-b]pyridazin-6-yl}-hydrazine] are 8.96 and 5.85.
As for `Cc1cccc(/C=N/Nc2cc(N3CCOCC3)c3nc(-c4ccncc4)cn3n2)c1` [Compound 4, N-(3-methyl-benzylidene)-N′-(8-morpholin-4-yl-2-pyridin-4-yl-imidazo[1,2-b]pyridazin-6-yl)-hydrazine], the pIC50 in experiment [1] was 8.44; in the experiment on TNF-α, below 5.00; in experiment [2], 6.33.
Consider `CN(C)c1cccc(/C=N/Nc2cc(N3CCOCC3)c3nc(-c4ccncc4)cn3n2)c1` [Compound 23, N-(3-dimethylamino-benzylidene)-N-(8-morpholin-4-yl-2-pyridin-4-yl-imidazo[1,2-b]pyridazin-6-yl)-hydrazine], for which the negative logarithm of the IC50 (pIC50) was 7.20 in experiment [1] and 6.26 in experiment [2].
In the same order, the values of `CCc1cccc(/C=N/Nc2cc(N3CCOCC3)c3nc(-c4ccncc4)cn3n2)c1` [Compound 10, N-(3-ethyl-benzylidene)-N′-(8-morpholin-4-yl-2-pyridin-4-yl-imidazo[1,2-b]pyridazin-6-yl)-hydrazine] are 8.09 and 6.74.
In the same order, the values of `Cc1ccc(/C=N/Nc2cc(N3CCOCC3)c3nc(-c4ccncc4)cn3n2)cc1` [Compound 25, N-(4-methyl-benzylidene)-N′-(8-morpholin-4-yl-2-pyridin-4-yl-imidazo[1,2-b]pyridazin-6-yl)-hydrazine] are 7.36 and 7.20.
With `Cc1ccc(/C=N/Nc2cc(N3CCOCC3)c3nc(-c4ccncc4)cn3n2)o1` [Compound 13, N-(5-methyl-furan-2-yl-methylidene)-N′-(8-morpholin-4-yl-2-pyridin-4-yl-imidazo[1,2-b]pyridazin-6-yl)-hydrazine], the pIC50 in experiment [1] is 6.72.
